Our source for the IC50 and Activity values is ChEMBL document CHEMBL4017466, “Efficient synthesis of a multi-substituted diphenylmethane skeleton as a steroid mimetic” (Bioorg Med Chem Lett, 2017).

Activity calls are given as the source filed them. The calls are words filed in the database; no cut-off is given here.

For one assay, the target named is T1, Estrogen receptor (Homo sapiens, UniProt P03372).
T1 sequence (P03372 whole entry): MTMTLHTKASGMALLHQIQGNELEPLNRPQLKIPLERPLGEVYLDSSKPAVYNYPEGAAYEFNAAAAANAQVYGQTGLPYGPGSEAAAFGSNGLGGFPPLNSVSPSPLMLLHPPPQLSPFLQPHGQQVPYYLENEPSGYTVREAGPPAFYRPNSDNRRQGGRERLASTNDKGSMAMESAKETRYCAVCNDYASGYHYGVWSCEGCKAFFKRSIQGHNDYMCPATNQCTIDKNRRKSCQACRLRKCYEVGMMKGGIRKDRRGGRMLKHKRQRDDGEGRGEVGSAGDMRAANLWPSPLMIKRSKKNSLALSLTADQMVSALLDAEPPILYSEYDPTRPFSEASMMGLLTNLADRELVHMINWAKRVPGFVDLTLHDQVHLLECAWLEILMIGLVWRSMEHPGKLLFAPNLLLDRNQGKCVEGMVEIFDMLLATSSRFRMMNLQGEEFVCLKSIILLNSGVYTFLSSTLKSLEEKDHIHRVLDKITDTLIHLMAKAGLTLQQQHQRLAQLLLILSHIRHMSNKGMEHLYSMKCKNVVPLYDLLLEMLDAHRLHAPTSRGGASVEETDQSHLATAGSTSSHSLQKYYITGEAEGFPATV
Kind of assay: Antagonist activity at CMX-GAL4N fused human ERalpha expressed in HEK293 cells assessed as reduction in E2 induced response by luciferase reporter gene assay. Format: cell-based.
What is called IC50 is the concentration that inhibits the measured activity by half. On to `CCCC(CCC)(c1ccc(O)c(C)c1)c1cc(C)c(O)c(O)c1`, for which the IC50 is 271 nM. Take `CCC(CC)(c1ccc(O)cc1)c1ccc(O)c(O)c1`: the half-maximal inhibitory concentration (IC50) stood at 154 nM. As to `CCCC(CCC)(c1ccc(OCCN(C)C)c(C)c1)c1ccc(O)c(O)c1`, the IC50 was 225 nM.

As for `CCCC(CCC)(c1ccc(O)cc1)c1ccc(O)c(O)c1`, the concentration for half-maximal inhibition (IC50) was found to be 63.2 nM. For the molecule `CCCC(CCC)(c1ccc(O)c(C)c1)c1ccc(OCCN(C)C)c(C)c1`, the IC50 was found to be 134 nM. Regarding `CCCC(CCC)(c1ccc(O)c(C)c1)c1ccc(O)c(C)c1`, the IC50 was found to be 2.22 nM. On the same count and under the same terms, next, `CCC(CC)(c1ccc(O)c(C)c1)c1ccc(O)c(O)c1`: 664 nM. Regarding `CCCC(CCC)(c1ccc(O)c(C)c1)c1ccc(O)c(O)c1`, the IC50 turned out to be 158 nM.

The target in the next assay is T2, Estrogen receptor (Homo sapiens) (UniProt P03372).
T2 sequence (whole entry): T1 sequence (P03372 whole entry)
Kind of assay: Antagonist activity at CMX-GAL4N fused human ERalpha expressed in HEK293 cells assessed as reduction in E2 induced response at 10 to 10^4 nM by luciferase reporter gene assay. Format: cell-based. A general note: In a reporter assay the amount or activity of a reporter protein is the signal.
As for `CCCC(CCC)(c1ccc(O)c(C)c1)c1ccc(OC(C)=O)c(OC(C)=O)c1`, the outcome was Active.
